{"source": "patent US12544375B2", "about": "“Small molecule therapeutic for parkinson's disease paired with a biomarker of therapeutic activity” (The Board of Trustees of the Leland Stanford Junior …, priority 2019, dated 2026)", "target": "T1, Miro1 (Homo sapiens, UniProt Q8IXI2)", "T1 construct": "We applied compound 3 to fibroblasts from one sporadic PD patient (PD-2); endogenous in cells; host or cells: human skin fibroblasts (PD-2, Healthy-1 and further PD/control lines)", "T1 sequence (Q8IXI2 whole entry)": "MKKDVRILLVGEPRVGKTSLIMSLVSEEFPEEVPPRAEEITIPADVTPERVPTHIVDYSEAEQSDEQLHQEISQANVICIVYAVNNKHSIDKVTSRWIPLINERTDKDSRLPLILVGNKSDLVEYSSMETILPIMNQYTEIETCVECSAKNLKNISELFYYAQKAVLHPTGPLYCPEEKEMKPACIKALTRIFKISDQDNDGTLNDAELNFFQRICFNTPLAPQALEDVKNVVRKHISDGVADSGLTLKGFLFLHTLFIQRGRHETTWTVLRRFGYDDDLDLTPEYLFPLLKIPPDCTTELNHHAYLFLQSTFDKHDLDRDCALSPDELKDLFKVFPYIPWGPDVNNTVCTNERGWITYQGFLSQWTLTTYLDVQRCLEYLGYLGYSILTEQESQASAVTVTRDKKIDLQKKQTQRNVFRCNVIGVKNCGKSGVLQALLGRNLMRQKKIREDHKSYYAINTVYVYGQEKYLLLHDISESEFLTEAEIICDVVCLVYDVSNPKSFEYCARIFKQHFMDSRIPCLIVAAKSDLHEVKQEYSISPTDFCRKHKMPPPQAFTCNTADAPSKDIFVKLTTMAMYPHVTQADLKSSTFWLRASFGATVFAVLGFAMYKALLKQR", "assay": "Ubiquitination of immunoprecipitated Miro1 after CCCP 1 hr", "format": "cell-based", "settings": "PD-2 fibroblasts, with or without Miro1 Reducer", "method": "FIG. 8. Related to FIG. 2-4. Miro1 Reducer in Human Cell and Fly Models. (A) Fibroblasts from Healthy-1 and PD-2 were treated, lysed, and blotted as indicated. Band intensities are normalized to those of GAPDH from the same blots and compared to “Healthy-1, no treatment”. n=4 independent experiments. (B) Fibroblasts from PD-2 were treated and immunostained as indicated. The intensity was quantified for each cell across 264-320 cells from 3 independent experiments, compared to “no treatment”. (C) Fibroblasts were treated, immunoprecipitated (IPed) with anti-Miro1, and blotted as indicated. Similar results were observed twice. (D) Similar as in (C), fibroblasts were treated as indicated, and IPed with anti-Miro1. The GTPase activity of the IPed Miro1 protein was measured as described in Method. […] The MitoSox intensity was quantified for each cell across 106-161 cells from 3 coverslips. […] The TMRM intensity was measured for each cell across 48-60 cells from 3 independent experiments, and expressed as a fraction of the mean of “Healthy-1, no treatment”. […] The movement (the intensity of non-yellow) was quantified for each cell as described in (Tsai et al., 2014) across 22-31 cells from 3 transfections. […] (1) Left: The percentage of TH-positive iPSC-derived neurons out of total cells (Dapi-positive) is calculated after immunocytochemistry under 20× as described in FIG. 3. […]"}
{"smiles": "O=C(Nc1ccc(Nc2cc(-n3ccnc3)ncn2)cc1)Nc1cccc(F)c1", "note": "[Miro1 Reducer]", "values": [{"measurement": "depolarization-elicited increase of ubiquitination of IPed Miro1", "result": "did not occur"}]}
